In patent publication US5648474A, “Crystalline etoposide 4'-phosphate diethanolate” (Bristol-Myers Squibb, priority 1991, dated 1997):
“And” between values parts separate entries of the source, which are not always exact repeats. Equal entries are not always repeated.

Tests used:
[1] = Stability at 50° C., potency by HPLC (% EP remaining); format: physicochemical; settings: for % EP remaining, 2 wk / % EP remaining, 4 wk / % EP remaining, 8 wk: sealed glass vials, control: desiccated at 4° C. (100% assumed potency); for % EP remaining, 2 wk: 20160 min; for % EP remaining, 4 wk: 40320 min; for % EP remaining, 8 wk: 80640 min
Method: a. Crystalline etoposide 4'-phosphate diethanolate prepared as described above. b. Crystalline etoposide 4'-phosphate (unsolvated) was prepared by the following procedure. Etoposide 4'-phosphate (300 mg) in ethanol (175 ml) was heated with stirring at 70° C. to obtain a clear solution. The solution was filtered and the filtrate heated at 70° C. until the volume was reduced to ca. 34 ml. A portion of the solution (ca. 17 ml) was placed in a vial, and seeded with a small amount of needle-shaped etoposide 4'-phosphate crystals previously obtained. The solution was placed in freezer at -12° C. for 4 days and the resulting needle-shaped crystals were harvested as white fluffy material. NMR analysis of this material indicated ethanol content of ca. 1.6% w/w. […]
c. amorphous disodium etoposide 4'-phosphate prepared as described in U.S. Pat. No. 4,904,768. d. amorphous etoposide 4'-phosphate was obtained by dissolving crystalline etoposide 4'-phosphate diethanolate (125 mg) in methanol (50 ml), evaporating the solution to dryness on a rotary evaporator, and drying the residue at 25° C. under vacuum for 1 hour.
Accurately weighed samples of the test materials were placed in Type I flint glass vials and sealed with Teflon-coated stoppers and aluminum caps. The vials were stored at 50° C. The potency of these samples was determined at 2,4 and 8 weeks by HPLC. Samples stored desiccated at 4° C. served as controls (100% assumed potency).
Column: Jones Apex Octadecyl, 5μ, 150×4.6 mm
Mobile phase A: 0.02M ammonium phosphate (mono-basic) in Milli-Q water (pH ~4.5): Acetonitrile (85:15) Mobile phase B: Acetonitrile
Gradient: 0-3 minutes isocratic at 0% B; 3-18 mins--linear gradient 0 to 30% B; 18-23 mins--isocratic at 30% B; 23-25 mins--linear gradient 30 to 0% B; 25-30 mins--re-equilibrate at 100% A (i.e. 0% B) […]
Sample diluent: Mobile phase A
Inj. volume: 20 microliters
Retention times: Etoposide 4'-phosphate--5.4 mins; lignan P--11.5 mins; etoposide--17.5 mins Peak area for etoposide 4'-phosphate was linearly correlated with concentration in the range 0.05-0.20 mg/mL (correlation coefficient=0.9999).
The results of the above-described stability test are given in the following Table in which the term "EP" represents etoposide 4'-phosphate.

[2] = cited from earlier work
[3] = previously disclosed fluffy, amorphous forms; cited from earlier work
[4] = relative to etoposide; cited from earlier work

SMILES	% EP remaining, 2 wk [1]	% EP remaining, 4 wk [1]	% EP remaining, 8 wk [1]	water solubility [2]	stability versus other forms of etoposide 4'-phosphate [1]	loss of potency over a 8-week period ([1]; 8-week period)	decomposition upon storage [3]	activity in in vivo antitumor assays [4]
COc1cc([C@@H]2c3cc4c(cc3[C@@H](O[C@@H]3O[C@@H]5CO[C@@H](C)O[C@H]5[C@H](O)[C@H]3O)[C@H]3COC(=O)[C@H]23)OCO4)cc(OC)c1OP(=O)(O)O [Amorphous EP 2Na, disodium etoposide 4'-phosphate]	85.5%	69.3%	61.6%	≥ 100 mg/mL	–	–	–	–
COc1cc([C@@H]2c3cc4c(cc3[C@@H](O[C@@H]3O[C@@H]5CO[C@@H](C)O[C@H]5[C@H](O)[C@H]3O)[C@H]3COC(=O)[C@H]23)OCO4)cc(OC)c1OP(=O)(O)O [Amorphous EP, etoposide 4'-phosphate]	65.8%	54.1%	46.7%	–	–	–	–	–
COc1cc([C@@H]2c3cc4c(cc3[C@@H](O[C@@H]3O[C@@H]5CO[C@@H](C)O[C@H]5[C@H](O)[C@H]3O)[C@H]3COC(=O)[C@H]23)OCO4)cc(OC)c1OP(=O)(O)O [Crystalline EP 2EtOH, etoposide 4'-phosphate diethanolate]	100%	98.4% and 100%	97.5% and 99.3%	–	superior stability	very little loss of potency	–	–
COc1cc([C@@H]2c3cc4c(cc3[C@@H](O[C@@H]3O[C@@H]5CO[C@@H](C)O[C@H]5[C@H](O)[C@H]3O)[C@H]3COC(=O)[C@H]23)OCO4)cc(OC)c1OP(=O)(O)O [Crystalline EP, etoposide 4'-phosphate]	93.3%	87.9%	85.1%	–	–	–	–	–
COc1cc([C@@H]2c3cc4c(cc3[C@@H](O[C@@H]3O[C@@H]5CO[C@@H](C)O[C@H]5[C@H](O)[C@H]3O)[C@H]3COC(=O)[C@H]23)OCO4)cc(OC)c1OP(=O)(O)O [Etoposide 4'-phosphate (I), Etoposide 4'-phosphate]	–	–	–	≥ 100 mg/mL	–	–	tend to decompose upon storage	as active as etoposide
COc1cc([C@@H]2c3cc4c(cc3[C@@H](O[C@@H]3O[C@@H]5CO[C@@H](C)O[C@H]5[C@H](O)[C@H]3O)[C@H]3COC(=O)[C@H]23)OCO4)cc(OC)c1O [Etoposide]	–	–	–	about 0.1 mg/ml	–	–	–	–
